Publication PMC10578347 (Journal of Medicinal Chemistry, 2023)
Entries after “also recorded” stand apart in the source; their conditions may differ.

What was measured:
[1] = molecular target: Nurr1 LBD; details: cited from earlier work
[2] = tested on: TH, VMAT2, SOD1/2 mRNA expression in N27 rat dopaminergic neural cells; assay type: cell-based
[3] = tested on: HEK293T cells; test: WST-8 cytotoxicity assay; assay type: cell-based; details: stable Renilla luciferase activity and WST-8 assay; 100 μM
[4] = molecular target: Nurr1 LBD (Homo sapiens, UniProt P43354); test: Isothermal titration calorimetry; assay type: binding; details: ITC, 25 °C, recombinant Nurr1 LBD
Sequence of Nurr1 LBD (Homo sapiens, UniProt P43354) (P43354 360-598): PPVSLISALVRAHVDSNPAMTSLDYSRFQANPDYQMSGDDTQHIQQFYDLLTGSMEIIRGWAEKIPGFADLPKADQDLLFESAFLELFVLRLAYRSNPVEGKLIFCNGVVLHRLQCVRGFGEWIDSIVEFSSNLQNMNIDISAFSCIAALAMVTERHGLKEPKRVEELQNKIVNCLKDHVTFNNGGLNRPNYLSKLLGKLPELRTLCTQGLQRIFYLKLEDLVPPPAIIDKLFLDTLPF

[5] = tested on: TH and VMAT2 mRNA expression in T98G cells; assay type: cell-based, human
[6] = tested on: nuclear receptors outside the NR4A family (THRα, RARα, PPARγ, revERBα, RORγ, VDR, LXRα, FXR, RXRα); assay type: cell-based
[7] = molecular target: Nur77 (NR4A1) (Homo sapiens, UniProt P22736); assay type: cell-based
Sequence of Nur77 (NR4A1) (P22736 360-595 limits assumed, species assumed): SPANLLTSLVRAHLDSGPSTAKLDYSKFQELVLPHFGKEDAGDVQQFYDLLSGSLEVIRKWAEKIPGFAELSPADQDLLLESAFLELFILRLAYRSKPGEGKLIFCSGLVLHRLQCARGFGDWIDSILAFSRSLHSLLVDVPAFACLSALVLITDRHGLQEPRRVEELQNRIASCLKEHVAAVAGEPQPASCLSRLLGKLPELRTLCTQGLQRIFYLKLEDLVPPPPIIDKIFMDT

[8] = molecular target: T1, NOR-1 (NR4A3) (Homo sapiens, UniProt Q92570); assay type: cell-based
T1 sequence (Q92570 394-623 limits assumed): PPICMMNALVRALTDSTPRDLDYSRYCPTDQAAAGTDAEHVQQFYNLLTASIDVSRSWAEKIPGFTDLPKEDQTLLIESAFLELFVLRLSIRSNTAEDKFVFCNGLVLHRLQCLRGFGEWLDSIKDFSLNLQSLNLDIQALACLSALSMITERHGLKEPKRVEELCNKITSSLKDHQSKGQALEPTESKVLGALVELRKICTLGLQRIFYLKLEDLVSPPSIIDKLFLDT

[9] = Glutathione reactivity assay; assay type: physicochemical; details: 125 μM compound, 2.5 mM GSH in PBS at 37 °C, up to 24 h

SMILES | TH, VMAT, SOD1/2 expression [2] | effect on cell viability [3] | Kd [4] | other results
Clc1ccc2[nH]ccc2c1 [2b, 5-chloro-1H-indole] | induced | – | – | Kd [1]: 15 µM
CC(C)N1CCC(NC(=O)c2cc3[nH]ccc3cc2Cl)CC1 [5e] | – | no pronounced effect on cell viability | no detectable interaction; also recorded: no binding^c | –
CC1CCN(CCCNC(=O)c2cc3[nH]ccc3cc2Cl)CC1 [5m] | – | no pronounced effect on cell viability | no detectable interaction; also recorded: no binding^c | –
CN(C)CCOc1ccc(Cl)cc1NC(=O)c1cc2[nH]ccc2cc1Cl [5o, 5-Chloro-N-{5-chloro-2-[2-(dimethylamino)ethoxy]phenyl}-1H-indole-6-carboxamide] | induced | no pronounced effect on cell viability | – | Nurr1-regulated mRNA expression of TH and VMAT2 [5]: induced; modulation of nuclear receptors outside the NR4A family [6]: did not modulate; also recorded: No nuclear receptor modulation; activity on Nur77 (NR4A1) [7]: preference for Nurr1 over the related NR4A receptors; also recorded: preference of 5o for Nurr1 over Nur77; activity on NOR-1 (NR4A3) [8]: preference for Nurr1 over the related NR4A receptors; also recorded: no NOR-1 (NR4A3) activation; stability against reaction with glutathione (GSH) [9]: stable; also recorded: High stability
O=C(NCCN1CCC2CCCCC2C1)c1cc2[nH]ccc2cc1Cl (centres unmarked) [5r] | – | no pronounced effect on cell viability | – | –
CCN(CC)C1CCC(NC(=O)c2cc3[nH]ccc3cc2Cl)CC1 (centres unmarked) [5t] | – | no pronounced effect on cell viability | no detectable interaction; also recorded: no binding^c | –
CCCCN1CCC(CNC(=O)c2cc3[nH]ccc3cc2Cl)C1 (centres unmarked) [5v] | – | no pronounced effect on cell viability | – | –
Oc1cc2cc[nH]c2cc1O [DHI (2a), 5,6-dihydroxyindole] | generally weaker effects | – | – | TH expression [2]: downregulated
CN(C)CCOc1ccc(Cl)cc1Nc1ccnc2cc(Cl)ccc12 [compound 13, 7-Chloro-N-{5-chloro-2-[2-(dimethylamino)ethoxy]phenyl}quinolin-4-amine] | induced | – | – | modulation of nuclear receptors outside the NR4A family [6]: did not modulate; also recorded: No nuclear receptor modulation; activity on Nur77 (NR4A1) [7]: activated Nurr1 and Nur77 with equal potency; activity on NOR-1 (NR4A3) [8]: preference over NOR-1; also recorded: less active on NOR-1
